According to patent publication US11897862B2 (Gilead Sciences, Inc., priority 2022, dated 2024):

Columns and labels:
Type in all cases: cell-based
[1] = biological target: T1, IKZF2 (Homo sapiens, UniProt Q96SW2+Q9UKS7); assay: Human whole blood IKZF2 degradation (flow cytometry, CD4/CD25/Foxp3+ Treg cells); parameters: endogenous in cells; conditions: 24 hrs incubation, IKZF2 MFI in CD4/CD25/Foxp3+ Treg cells, flow cytometry; for DC50: read-out: IKZF2 EC50
How it was run: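 Fresh healthy-donor human whole blood stimulated with CD3/CD28 activator and serially diluted compound for 24 hrs at 37° C. IKZF2 MFI in CD4/CD25/Foxp3+ Tregs (IKZF1 MFI in CD4+ T cells) measured by flow cytometry after RBC lysis, fixation, permeabilization. EC50 and Dmax versus DMSO wells.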
Target sequence in this assay (Q9UKS7 whole entry): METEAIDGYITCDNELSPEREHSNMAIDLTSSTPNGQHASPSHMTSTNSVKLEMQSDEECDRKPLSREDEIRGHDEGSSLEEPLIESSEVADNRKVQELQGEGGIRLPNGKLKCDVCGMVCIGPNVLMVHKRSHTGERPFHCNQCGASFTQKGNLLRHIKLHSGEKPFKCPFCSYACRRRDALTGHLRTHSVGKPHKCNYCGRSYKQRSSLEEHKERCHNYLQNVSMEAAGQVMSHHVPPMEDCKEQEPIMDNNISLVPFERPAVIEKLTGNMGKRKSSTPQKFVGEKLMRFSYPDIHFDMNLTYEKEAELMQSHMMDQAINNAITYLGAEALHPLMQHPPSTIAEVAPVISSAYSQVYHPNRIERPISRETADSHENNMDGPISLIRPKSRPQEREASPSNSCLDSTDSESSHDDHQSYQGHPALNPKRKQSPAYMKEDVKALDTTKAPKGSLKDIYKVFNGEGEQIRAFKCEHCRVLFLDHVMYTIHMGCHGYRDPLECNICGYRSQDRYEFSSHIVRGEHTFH
Target sequence in this assay (Q96SW2 whole entry): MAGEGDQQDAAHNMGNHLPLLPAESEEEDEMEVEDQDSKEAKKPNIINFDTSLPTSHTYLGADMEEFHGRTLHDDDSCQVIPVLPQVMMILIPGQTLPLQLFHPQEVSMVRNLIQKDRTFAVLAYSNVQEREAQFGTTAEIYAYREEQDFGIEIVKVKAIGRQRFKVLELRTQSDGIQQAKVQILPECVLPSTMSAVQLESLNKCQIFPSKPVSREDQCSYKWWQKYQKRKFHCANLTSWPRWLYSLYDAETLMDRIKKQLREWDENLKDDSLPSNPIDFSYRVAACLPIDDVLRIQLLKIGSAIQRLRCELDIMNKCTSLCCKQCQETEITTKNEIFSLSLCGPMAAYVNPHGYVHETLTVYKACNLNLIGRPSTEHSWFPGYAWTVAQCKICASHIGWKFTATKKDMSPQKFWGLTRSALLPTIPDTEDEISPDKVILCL
Target sequence in this assay (Q16531 whole entry partner): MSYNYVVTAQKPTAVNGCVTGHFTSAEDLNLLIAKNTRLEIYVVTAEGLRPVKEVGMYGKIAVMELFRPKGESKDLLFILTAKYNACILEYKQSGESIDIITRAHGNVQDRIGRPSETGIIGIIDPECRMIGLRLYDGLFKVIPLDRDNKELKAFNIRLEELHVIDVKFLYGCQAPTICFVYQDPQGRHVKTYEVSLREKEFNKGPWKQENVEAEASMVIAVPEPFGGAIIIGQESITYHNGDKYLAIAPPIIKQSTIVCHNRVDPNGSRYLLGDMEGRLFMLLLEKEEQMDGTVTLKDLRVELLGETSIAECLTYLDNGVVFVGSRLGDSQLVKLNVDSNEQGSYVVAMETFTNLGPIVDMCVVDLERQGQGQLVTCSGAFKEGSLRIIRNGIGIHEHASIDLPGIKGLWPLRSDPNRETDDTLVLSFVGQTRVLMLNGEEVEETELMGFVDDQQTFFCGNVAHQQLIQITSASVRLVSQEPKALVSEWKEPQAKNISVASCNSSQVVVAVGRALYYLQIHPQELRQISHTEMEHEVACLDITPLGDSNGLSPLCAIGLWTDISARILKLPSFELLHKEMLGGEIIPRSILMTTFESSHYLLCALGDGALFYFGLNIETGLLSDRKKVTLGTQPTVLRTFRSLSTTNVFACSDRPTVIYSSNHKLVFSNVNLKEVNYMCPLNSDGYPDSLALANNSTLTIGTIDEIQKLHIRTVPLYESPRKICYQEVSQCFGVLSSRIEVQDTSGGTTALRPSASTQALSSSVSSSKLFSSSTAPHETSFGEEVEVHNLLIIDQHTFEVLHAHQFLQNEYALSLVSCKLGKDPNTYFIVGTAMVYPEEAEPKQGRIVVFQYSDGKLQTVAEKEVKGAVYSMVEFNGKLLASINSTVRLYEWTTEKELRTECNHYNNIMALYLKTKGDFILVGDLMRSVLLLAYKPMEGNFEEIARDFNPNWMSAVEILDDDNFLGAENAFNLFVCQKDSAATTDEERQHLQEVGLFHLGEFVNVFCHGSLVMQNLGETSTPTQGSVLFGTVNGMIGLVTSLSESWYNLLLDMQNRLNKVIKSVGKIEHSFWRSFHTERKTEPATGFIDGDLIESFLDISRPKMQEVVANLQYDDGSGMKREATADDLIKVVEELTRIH

[2] = biological target: T1, IKZF2; assay: HEK293 IKZF2 degradation kinetics (HiBiT, timepoints 1-24 h); parameters: expressed in transfected cells; conditions: for kinact: HEK293, IKZF2, timepoints 1, 2, 3, 4.5 and 24 hour, read-out: Maximum degradation rate Kinact (converted)
Protocol: The assay technology and principles for evaluating IKZF2 degradation kinetics in HEK293 cells was identical to the HEK293 degradation assay as described above. Additional details are briefly described below.
On Day 1, Cells were grown and induced the same as described above. On Days 2 and 3, compounds for testing were dispensed via ECHO and cells were lifted and plated into compound-spotted assay plates as above. Plates were returned to the 37° C. incubator until addition of Nano-Glo lytic reagent at 1, 2, 3, 4.5, and 24 hour timepoints. At these timepoints, plates were read on Envision reader as above.
All raw data was normalized to DMSO control (final concentration: 0.5%) wells as POC and plotted out as a function of time to generate the degradation rate constant (K) value. The maximum degradation rate (Kinact) was determined by plotting the K value as a function of concentration for each compound tested. Kinact values are shown in Table 25 and the degradation rate plots as well as timecourse of degradation are shown for select compounds in FIG. 1A, FIG. 1B, FIG. 2A and FIG. 2B.
Target sequence in this assay (Q9UKS7 1-500 isoform Q9UKS7-2): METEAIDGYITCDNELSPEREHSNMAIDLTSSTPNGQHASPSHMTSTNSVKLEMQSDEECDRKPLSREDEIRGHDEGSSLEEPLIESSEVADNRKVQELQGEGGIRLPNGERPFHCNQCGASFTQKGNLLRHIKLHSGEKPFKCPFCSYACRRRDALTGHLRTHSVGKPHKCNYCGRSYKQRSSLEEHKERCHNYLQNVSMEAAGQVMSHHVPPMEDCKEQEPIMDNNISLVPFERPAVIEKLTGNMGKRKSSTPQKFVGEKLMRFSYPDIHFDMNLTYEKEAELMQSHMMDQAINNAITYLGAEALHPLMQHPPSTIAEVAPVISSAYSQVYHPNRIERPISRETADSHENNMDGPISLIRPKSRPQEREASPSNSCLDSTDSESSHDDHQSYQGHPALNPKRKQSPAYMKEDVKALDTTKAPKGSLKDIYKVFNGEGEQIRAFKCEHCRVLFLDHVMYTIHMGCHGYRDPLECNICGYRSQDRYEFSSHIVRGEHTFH
Target sequence in this assay (Q96SW2 whole entry): as the sequence (Q96SW2 whole entry) above
Target sequence in this assay (Q16531 whole entry partner): as the sequence (Q16531 whole entry partner) above

[3] = biological target: T1, IKZF2; assay: HEK293 HiBiT in vitro degradation of IKZF2; parameters: expressed in transfected cells; conditions: for Dmax / IKZF2 Dmax: maximum degradation at the highest concentration tested; for DC50: 18-24 hr incubation, normalized to DMSO control, read-out: IKZF2 EC50
How it was run: (§1)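 Cellular target level is measured as luminescence from an 11-residue HiBiT tag fused via a linker to the C-terminus of IKZF1, IKZF2 or SALL4 in stable Flp-In T-REx HEK293 pools. Reporter expression is induced overnight with doxycycline ([…] final), and compounds act for 18-24 h before lytic detection.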
Target sequence in this assay (Q9UKS7 1-500 isoform Q9UKS7-2): as the sequence (Q9UKS7 1-500 isoform Q9UKS7-2) above
Target sequence in this assay (Q96SW2 whole entry): as the sequence (Q96SW2 whole entry) above
Target sequence in this assay (Q16531 whole entry partner): as the sequence (Q16531 whole entry partner) above

[4] = biological target: T2, IKZF1 (Homo sapiens, UniProt Q13422+Q96SW2); assay: HEK293 HiBiT in vitro degradation of IKZF1; conditions: for Dmax: HEK293, HEK293 HiBiT; for DC50: 18-24 hr incubation, normalized to DMSO control, read-out: IKZF1 EC50
T2 construct: expressed in transfected cells
How it was run: as §1

[5] = biological target: T3, SALL4 (Homo sapiens, UniProt Q96SW2+Q9UJQ4); assay: HEK293 HiBiT in vitro degradation of SALL4; conditions: for DC50: 18-24 hr incubation, normalized to DMSO control, read-out: SALL4 EC50
T3 construct: expressed in transfected cells
Protocol: In vitro degradation of IKZF1, IKZF2, and SALL4 was measured using HiBiT protein tagging and detection technology (Promega).
HiBit technology was used to develop the quantitative assays to measure the cellular IKZFs level by tagging an 11 amino acid HiBit peptides […] to the protein of interest. Reporter plasmids were generated by fusing a linker sequence ([…]) followed by the HiBit tag at the C-terminus of IKZF1, IKZF2, and SALL4. The fusion fragments were subsequently cloned into pcDNA5 pcDNA™5/FRT/TO plasmids (Thermo Fisher, cat #V652020) downstream of the tetracycline operator. The resulting plasmids were co-transfected with pOG44 Flp-Recombinase Expression Vector (Thermo Fisher, cat #V600520) into Flp-In™ T-REx HEK293 line (Thermo Fisher, cat #R78077) and a stable cell pool was selected by adding 100 µg/ml of Hygromycin (Thermo Fisher, cat #10687010). The reporter cell enabled Tet-On inducible reporter expression from a single copy of the integrated gene.
On Day 1, Cells were grown to ˜80% confluency in tissue culture medium (DMEM Glutamax (Gibco10569), 10% Tet free FBS (Takara 631106), and PenStrep Glutamin (Gibco 10378)) in tissue culture flasks. Doxycycline was then added to a final concentration of […] to induce reporter expression at 37° C. overnight.
On Day 2, 125 nL of serially-diluted solution of testing compounds were dispensed into 384-well white solid assay plates via ECHO acoustic liquid handler. Cells were lifted by 0.25% Trypsin (Gibco 25200) then pelleted by centrifugation (Beckman Avanti J-E) at 500×g for 5 min. Cell pellets were resuspended in TC medium at the concentration of 3e5/mL and 25 μL of cell suspension were added into each well of compound-spotted plates. The plates were returned to a 37° C. incubator overnight (18-24 hr).
On Day 3, assay plates were removed from the tissue culture incubator and 25 μL of Nano-Glo lytic detection system (Promega, cat #N3030) was added to each well. Plates were incubated at r.t. for 3 min with shaking, and luminescence was read using an Envision reader (Perkin Elmer).
To assess the IKZF1, IKZF2, and SALL4 degrader potential of exemplified compounds of this disclosure and certain Reference Compounds EC50 and Dmax values were determined for the compounds of Examples 1 to 383 and Reference Compounds A-1, B-1, B-2, B-3, B-4, and C-1 in the HiBiT assays. Asterisks (*) indicate examples for which the data shown represents an average of n≥3.

[6] = maximum degradation at the highest concentration tested

T2 sequence (Q13422 whole entry): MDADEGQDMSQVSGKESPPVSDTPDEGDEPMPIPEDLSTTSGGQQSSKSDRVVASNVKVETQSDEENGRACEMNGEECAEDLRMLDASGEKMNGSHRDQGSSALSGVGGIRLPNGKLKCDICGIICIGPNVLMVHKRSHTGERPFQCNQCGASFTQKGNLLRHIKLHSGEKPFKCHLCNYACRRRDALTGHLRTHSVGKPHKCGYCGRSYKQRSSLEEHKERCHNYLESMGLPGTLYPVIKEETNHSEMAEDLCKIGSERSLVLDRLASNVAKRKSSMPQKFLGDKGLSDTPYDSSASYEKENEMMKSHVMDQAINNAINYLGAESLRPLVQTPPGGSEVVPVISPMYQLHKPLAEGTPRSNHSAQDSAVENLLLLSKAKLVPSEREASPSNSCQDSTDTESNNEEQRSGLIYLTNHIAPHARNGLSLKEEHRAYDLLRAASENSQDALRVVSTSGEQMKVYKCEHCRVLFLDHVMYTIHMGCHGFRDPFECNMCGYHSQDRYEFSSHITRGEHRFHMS
T2 sequence (Q96SW2 whole entry): as the sequence (Q96SW2 whole entry) above
T2 sequence (Q16531 whole entry partner): as the sequence (Q16531 whole entry partner) above
T3 sequence (Q9UJQ4 whole entry): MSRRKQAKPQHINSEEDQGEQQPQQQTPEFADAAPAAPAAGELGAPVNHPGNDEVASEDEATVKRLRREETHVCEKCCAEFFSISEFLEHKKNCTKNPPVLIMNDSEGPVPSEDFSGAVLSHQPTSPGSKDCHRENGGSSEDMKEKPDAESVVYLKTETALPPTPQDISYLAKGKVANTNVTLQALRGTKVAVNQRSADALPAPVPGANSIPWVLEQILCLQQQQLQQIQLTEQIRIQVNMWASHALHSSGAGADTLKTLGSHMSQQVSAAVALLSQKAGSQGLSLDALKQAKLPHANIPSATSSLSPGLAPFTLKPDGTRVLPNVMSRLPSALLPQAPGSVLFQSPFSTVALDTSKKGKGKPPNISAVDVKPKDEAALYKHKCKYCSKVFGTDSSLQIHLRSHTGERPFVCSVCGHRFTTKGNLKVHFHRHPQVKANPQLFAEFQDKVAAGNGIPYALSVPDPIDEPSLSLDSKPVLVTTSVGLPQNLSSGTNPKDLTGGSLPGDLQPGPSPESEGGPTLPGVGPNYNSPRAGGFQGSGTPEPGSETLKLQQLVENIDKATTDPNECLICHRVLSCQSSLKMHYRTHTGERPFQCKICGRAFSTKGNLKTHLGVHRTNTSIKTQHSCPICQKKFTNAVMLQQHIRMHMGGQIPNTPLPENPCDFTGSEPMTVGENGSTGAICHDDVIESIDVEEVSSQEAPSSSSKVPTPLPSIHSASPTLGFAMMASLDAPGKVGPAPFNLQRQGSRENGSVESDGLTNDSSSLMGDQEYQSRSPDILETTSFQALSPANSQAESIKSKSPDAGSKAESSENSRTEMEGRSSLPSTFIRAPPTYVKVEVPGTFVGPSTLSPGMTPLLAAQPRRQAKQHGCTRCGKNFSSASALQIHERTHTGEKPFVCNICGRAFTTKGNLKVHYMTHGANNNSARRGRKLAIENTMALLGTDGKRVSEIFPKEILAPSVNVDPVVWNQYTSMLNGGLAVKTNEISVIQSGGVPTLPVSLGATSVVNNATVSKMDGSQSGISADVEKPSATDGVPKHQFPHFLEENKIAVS
T3 sequence (Q96SW2 whole entry): as the sequence (Q96SW2 whole entry) above
T3 sequence (Q16531 whole entry partner): as the sequence (Q16531 whole entry partner) above

| Structure (SMILES) | Dmax [1] [%] | DC50 [1] [nM] | kinact [2] [s⁻¹] | Dmax ([3]; HEK293, HEK293 HiBiT) [%] | DC50 ([3]; HEK293 HiBiT) [nM] | Dmax [4, 6] [%] | DC50 ([4]; HEK293 HiBiT) [nM] | DC50 [5] [nM] | IKZF2 Dmax ([3]; HEK293 HiBiT) [%] | IKZF1 Dmax ([4]; HEK293 HiBiT, maximum degradation at the highest concentration tested) [%] | speed of IKZF2 degradation compared with Reference Compounds A-1, B-3, B-4, C-1 ([2]; HEK293) | Dmax ([3]; HEK293 HiBiT) [%] | Dmax [5, 6] [%] |
| --- | --- | --- | --- | --- | --- | --- | --- | --- | --- | --- | --- | --- | --- |
| O=C1CCC(N2Cc3c(ccc(C[C@H]4OCCC[C@@H]4NC4CCC(C(F)(F)F)CC4)c3F)C2=O)C(=O)N1 (single isomer, unassigned) [Example 257] | 93 | 5 | 0.000133 | 99 | 3 | 34 | 69 | – | – | – | – | – | – |
| O=C1CCC(N2Cc3c(ccc(C[C@H]4OCCC[C@@H]4N[C@H]4CC[C@@H](F)CC4)c3F)C2=O)C(=O)N1 (single isomer, unassigned) [Example 290] | 96 | 6 | – | 98 | 4 | 27 | 138 | > 10000 | – | – | – | – | – |
| O=C1CC[C@H](N2Cc3c(ccc(C[C@H]4OCCC[C@@H]4NC4CCC(F)(F)CC4)c3F)C2=O)C(=O)N1 (single isomer, unassigned) [Example 332] | – | – | – | 95 | 6 | – | > 1000 | > 10000 | – | – | – | – | – |
| O=C1CC[C@@H](N2Cc3c(ccc(C[C@H]4OCCC[C@@H]4NC4CCC(F)(F)CC4)c3F)C2=O)C(=O)N1 (single isomer, unassigned) [Example 333] | – | – | – | 94 | 9 | – | 210 | > 10000 | – | – | – | – | – |
| O=C1CC[C@H](N2Cc3c(ccc(C[C@H]4CCCC[C@@H]4NC4CCC(F)(F)CC4)c3F)C2=O)C(=O)N1 (single isomer, unassigned) [Example 334] | – | – | – | 97 | 1 | 59 | 13 | > 10000 | – | – | – | – | – |
| O=C1CC[C@@H](N2Cc3c(ccc(C[C@H]4CCCC[C@@H]4NC4CCC(F)(F)CC4)c3F)C2=O)C(=O)N1 (single isomer, unassigned) [Example 335] | – | – | – | 97 | 1 | 62 | 16 | > 10000 | – | – | – | – | – |
| O=C1CCC(N2Cc3cc(C[C@H]4CCCC[C@@H]4NC4CCc5c(C(F)(F)F)n[nH]c5C4)ccc3C2=O)C(=O)N1 (single isomer, unassigned) [Example 362] | – | – | – | 97 | 11 | 39 | 114 | > 10000 | – | – | – | – | – |
| O=C1CCC(N2Cc3cc(C[C@H]4CCCC[C@@H]4NC4CCc5c(C(F)(F)F)n[nH]c5C4)ccc3C2=O)C(=O)N1 (single isomer, unassigned) [Example 363] | – | – | – | – | 1 | – | 50 | > 10000 | 97 | 56 | – | – | – |
| O=C1CCC(N2Cc3c(ccc(C[C@H]4OCCC[C@@H]4NC4CCC5(CC4)CC5(F)F)c3F)C2=O)C(=O)N1 (single isomer, unassigned) [Example 364] | – | – | – | 96 | 3 | 37 | 45 | > 10000 | – | – | – | – | – |
| O=C1CCC(N2Cc3cc(C[C@H]4OCCC[C@@H]4NC4CCC(F)CC4)ccc3C2=O)C(=O)N1 (single isomer, unassigned) [Example 366] | – | – | – | 85 | 17 | – | > 1000 | > 10000 | – | – | – | – | – |
| O=C1CCC(N2Cc3cc(C[C@H]4OCCC[C@@H]4NC4CCC(F)CC4)ccc3C2=O)C(=O)N1 (single isomer, unassigned) [Example 367] | – | – | – | – | 15 | – | > 1000 | > 10000 | 87 | – | – | – | – |
| O=C1CC[C@@H](N2Cc3c(ccc(C[C@H]4OCCC[C@@H]4N[C@H]4CC[C@H](F)CC4)c3F)C2=O)C(=O)N1 (single isomer, unassigned) [Example 373] | – | – | 0.000111 | 94 | 7 | – | > 1000 | – | – | – | – | – | – |
| O=C1CCC(N2Cc3cc(C[C@H]4CCCC[C@@H]4NCc4ccccc4)ccc3C2=O)C(=O)N1 (stereo partly drawn) [Example 2, 3-(5-(((1R,2S)-2-(benzylamino)cyclohexyl)methyl)-1-oxoisoindolin-2-yl)piperidine-2,6-dione] | – | – | 0.000147 | 88 | 18 | – | > 10000 | – | – | – | faster degradation of IKZF2 | – | – |
| O=C1CCC(N2Cc3cc(C[C@H]4C[C@H](F)CC[C@@H]4NC4CCC(F)(F)CC4)ccc3C2=O)C(=O)N1 (stereo partly drawn) [Example 169] | – | – | – | 97 | 1 | 42 | 79 | > 10000 | – | – | – | – | – |
| [2H]C1(N[C@H]2CCCC[C@@H]2Cc2ccc3c(c2F)CN(C2CCC(=O)NC2=O)C3=O)CCC(F)(F)CC1 (stereo partly drawn) [Example 209] | – | – | – | 97 | 1 | 62 | 35 | > 10000 | – | – | – | – | – |
| O=C1CCC(N2Cc3c(ccc(C[C@H]4OCCC[C@@H]4NC4CCN(CC(F)(F)F)CC4)c3F)C2=O)C(=O)N1 (stereo partly drawn) [Example 308] | – | – | – | 96 | 12 | – | > 1000 | > 10000 | – | – | – | – | – |
| O=C1CCC(N2Cc3c(ccc(C[C@H]4OCCC[C@@H]4NC4CCN(CC(F)F)CC4)c3F)C2=O)C(=O)N1 (stereo partly drawn) [Example 309] | – | – | – | – | 16 | – | > 1000 | > 10000 | – | – | – | 96 | – |
| CO[C@H]1CC[C@H](Cc2ccc3c(c2)CN(C2CCC(=O)NC2=O)C3=O)[C@@H](NC2CCC(F)(F)CC2)C1 (stereo partly drawn) [Example 344] | – | – | – | 93 | 6 | 51 | 41 | > 10000 | – | – | – | – | – |
| O=C1CCC(N2Cc3cc(C[C@H]4CCCC[C@@H]4NC4CCc5[nH]nc(C(F)(F)F)c5C4)ccc3C2=O)C(=O)N1 (stereo partly drawn) [Example 352] | – | – | – | 99 | 3 | 47 | 323 | 3100 | – | – | – | – | 47 |
| Cn1ncc2c1CCC(N[C@H]1CCCC[C@@H]1Cc1ccc3c(c1)CN(C1CCC(=O)NC1=O)C3=O)C2 (stereo partly drawn) [Example 377] | – | – | – | 97 | 5 | 48 | 73 | > 10000 | – | – | – | – | – |
| O=C1CCC(N2Cc3cc(O[C@H]4CCCC[C@@H]4NCc4ccccc4)ccc3C2=O)C(=O)N1 (stereo partly drawn) [Example B-3] | – | – | 5.56e-05 | 84 | – | – | – | – | – | – | – | – | – |
| O=C1CCC(N2Cc3cc(N[C@H]4CCCC[C@@H]4NCc4ccccc4)ccc3C2=O)C(=O)N1 (stereo partly drawn) [Example C-1] | – | – | 8.33e-06 | 64 | – | – | – | – | – | – | – | – | – |
